We go through 26 molecules from patent US20170305857A1, “N-ACYLPIPERIDINE ETHER TROPOMYOSIN-RELATED KINASE INHIBITORS” (Pfizer Limited, priority 2014, published 2017).

Structures are written as SMILES.

This test deals with T1, recombinant His-tagged cytoplasmic domains of TRKA receptor (NTRK1, PV3144, aa 441-796) (Homo sapiens, UniProt P04629).
T1 construct: aa 441-796; His; purchased Invitrogen PV3144
T1 sequence (P04629 441-796): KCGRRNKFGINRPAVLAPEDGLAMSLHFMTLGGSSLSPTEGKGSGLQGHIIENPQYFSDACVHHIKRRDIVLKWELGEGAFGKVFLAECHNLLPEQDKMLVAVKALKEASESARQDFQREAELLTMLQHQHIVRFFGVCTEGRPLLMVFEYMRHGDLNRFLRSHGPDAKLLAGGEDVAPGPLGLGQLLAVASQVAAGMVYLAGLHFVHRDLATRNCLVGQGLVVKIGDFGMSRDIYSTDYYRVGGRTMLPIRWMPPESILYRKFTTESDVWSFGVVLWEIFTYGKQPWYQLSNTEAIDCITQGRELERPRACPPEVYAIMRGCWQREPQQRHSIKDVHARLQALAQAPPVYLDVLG
The test can be described thus: Isolated TRK enzyme assay (HTRF KinEASE-TK, PV3144 TrkA enzyme assay). The test is classed as biochemical. The following applies: 4 nM enzyme, 40 uM ATP, 35 min, arithmetic mean where more than one reading. On the procedure: Isolated TRK Enzyme assays use the HTRF KinEASE-TK kit (Cisbio Cat #62TK0PEJ) with recombinant His-tagged cytoplasmic domains of TRKA receptor sourced from Invitrogen (see table below). This activity-assay measures the phosphorylation of tyrosine residues within a substrate from the HTRF kit which has been validated by Cisbio for a variety of tyrosine kinases including the TRK receptors.
0.5 mM stock solutions of test compounds are prepared and serially diluted in 100% DMSO. […] Greiner low volume black plates containing 0.2 ul of serially diluted compound, standard and HPE/ZPE are created using the Bravo nanolitre dispenser.
1× enzyme buffer is prepared from 5× Enzymatic Buffer from the Cisbio KinEASE TK kit using MilliQ water. The buffer is then supplemented with 10 mM MgCl and 2 mM DTT (both from Sigma).
Following this preactivation step, 5 ul/well of enzyme+ATP mix is added using a Multidrop Micro to the assay plate, spotted with 0.2 ul 100% DMSO compound. This is left for 20 mins at room temperature before adding 5 ul of 2 uM TK-substrate-Biotin (from the Cisbio kit) diluted in 1× enzyme buffer (1 uM FAC) using the Multidrop Micro. The reaction is incubated at room temperature for the optimized assay reaction time (see table).
After the Detection Reagent addition, plates are covered and incubated at room temperature for 60 minutes. […] Test compound data are expressed as percentage inhibition defined by HPE and ZPE values for each plate. Percentage inhibition in the presence of test compound is plotted against compound concentration on a log scale to determine an IC50 from the resultant sigmoid curve.
Where more than one reading was taken, the arithmetic mean is presented.
On to `C[C@H](O)c1ccc(-c2cnc(OC3CCN(C(=O)Cc4ccc(OC(F)(F)F)cc4)CC3)c(C(N)=O)c2)cc1` [Example 152, 5-{4-[(1S)-1-hydroxyethyl]phenyl}-2-[(1-{[4-(trifluoromethoxy)phenyl]acetyl}piperidin-4-yl)oxy]pyridine-3-carboxamide], for which the 50% inhibitory concentration (IC50) – broadly, the midpoint of a concentration-inhibition curve – stood at 12.7 nM. With `NC(=O)c1cc(-c2cnn(CCO)c2)ncc1OC1CCN(C(=O)Cc2ccc(OC(F)(F)F)cc2)CC1` [Example 175, 2-[1-(2-hydroxyethyl)-1H-pyrazol-4-yl]-5-[(1-{[4-(trifluoromethoxy)phenyl]acetyl}piperidin-4-yl)oxy]pyridine-4-carboxamide], the IC50 is 17.1 nM. With `NC(=O)c1cc(-c2cn[nH]c2)ccc1O[C@H]1CCN(C(=O)Cc2ccc(OC3CC3)cn2)C[C@@H]1F` [Example 84, 2-{[(3S,4S)-1-{[5-(cyclopropyloxy)pyridin-2-yl]acetyl}-3-fluoropiperidin-4-yl]oxy}-5-(1H-pyrazol-4-yl)benzamide], the IC50 turned out to be 4.4 nM.

For the molecule `CC(C)(O)Cn1cc(-c2ccc(O[C@H]3CCN(C(=O)Cc4ccc(OC5CC5)cn4)C[C@@H]3F)c(C(N)=O)c2)cn1` [Example 34, 2-{[(3S,4S)-1-{[5-(cyclopropyloxy)pyridin-2-yl]acetyl}-3-fluoropiperidin-4-yl]oxy}-5-[1-(2-hydroxy-2-methylpropyl)-1H-pyrazol-4-yl]benzamide], the IC50 stood at 7.7 nM. Take `NC(=O)c1cc(-c2cn[nH]c2)ncc1O[C@@H]1CCN(C(=O)Cc2ccc(OC3CC3)cn2)C[C@@H]1F` [Example 87, 5-{[(3S,4R)-1-{[5-(cyclopropyloxy)pyridin-2-yl]acetyl}-3-fluoropiperidin-4-yl]oxy}-2-(1H-pyrazol-4-yl)pyridine-4-carboxamide]: the 50% inhibitory concentration (IC50) was determined as 6.8 nM. With `Cn1cnc(-c2ccc(O[C@H]3[C@@H]4CC[C@H]3CN(C(=O)Cc3ccc(OC(F)(F)F)cc3)C4)c(C(N)=O)c2)c1` [Example 46, 5-(1-methyl-1H-imidazol-4-yl)-2-(((1R,5S,8r)-3-(2-(4-(trifluoromethoxy)phenyl)acetyl)-3-azabicyclo[3.2.1]octan-8-yl)oxy)benzamide] the figure was 2.2 nM; with `Cn1cc(-c2ccc(O[C@H]3CCN(C(=O)Cc4ccc(OC(F)(F)F)cc4)C[C@H]3F)c(C(N)=O)c2)cn1` [Example 75, 2-{[(3R,4S)-3-fluoro-1-{[4-{trifluoromethoxy)phenyl]acetyl}piperidin-4-yl]oxy}-5-(1-methyl-1H-pyrazol-4-yl)benzamide], 0.9 nM. In the case of `NC(=O)c1cc(-c2cc[nH]n2)cnc1OC1CCN(C(=O)Cc2ccc(SC(F)(F)F)cc2)CC1` [Example 60, 5-(1H-pyrazol-3-yl)-2-{[1-({4-[(trifluoromethyl)sulfanyl]phenyl}acetyl)piperidin-4-yl]oxy}pyridine-3-carboxamide] it was 10 nM; in that of `Cn1cc(-c2ccc(OC3CCN(C(=O)Cc4ccc(OC(F)(F)F)cn4)CC3)c(C(N)=O)c2)cn1` [Example 10, 5-(1-methyl-1H-pyrazol-4-yl)-2-[(1-{[5-(trifluoromethoxy)pyridin-2-yl]acetyl}piperidin-4-yl)oxy]benzamide], 9.9 nM. With `Cn1cc(-c2cc(C(N)=O)c(O[C@@H]3CCN(C(=O)Cc4ccc(OC(F)(F)F)cc4)C[C@@H]3F)nn2)cn1` [Example 157, 3-{[(3S,4R)-3-fluoro-1-{[4-(trifluoromethoxy)phenyl]acetyl}piperidin-4-yl]oxy}-6-(1-methyl-1H-pyrazol-4-yl)pyridazine-4-carboxamide] the figure was 7.24 nM; with `CC(C)(N)c1ccc(-c2ccc(OC3CCN(C(=O)Cc4ccc(OC(F)(F)F)cc4)CC3)c(C(N)=O)c2)cc1` [Example 65, 4'-(2-aminopropan-2-yl)-4-[(1-{[4-(trifluoromethoxy)phenyl]acetyl}piperidin-4-yl)oxy]biphenyl-3-carboxamide], 3.5 nM; with `CS(=O)(=O)Cn1cc(-c2cnc(O[C@@H]3CCN(C(=O)Cc4ccc(OC5CC5)cc4)C[C@@H]3F)c(C(N)=O)c2)cn1` [Example 28, 2-{[(3S,4R)-1-{[4-(cyclopropyloxy)phenyl]acetyl}-3-fluoropiperidin-4-yl]oxy}-5-{1-[(methylsulfonyl)methyl]-1H-pyrazol-4-yl}pyridine-3-carboxamide], 2.3 nM. `NC(=O)c1cc(-c2nccs2)ccc1OC1CCN(C(=O)Cc2ccc(OC(F)(F)F)cc2)CC1` [Example 100, 5-(1,3-thiazol-2-yl)-2-[(1-{[4-(trifluoromethoxy)phenyl]acetyl}piperidin-4-yl)oxy]benzamide]: the IC50 amounted to 8.5 nM. In the case of `CC1CN(C(=O)Cc2ccc(OC(F)(F)F)cc2)CCC1Oc1ccc(-c2cn(C)cn2)cc1C(N)=O` (racemic) [Example 50, Racemic 2-((3-methyl-1-(2-(4-(trifluoromethoxy)phenyl)acetyl)piperidin-4-yl)oxy)-5-(1-methyl-1H-imidazol-4-yl)benzamide] it was 3.6 nM; in that of `C[C@H](CO)n1cc(-c2ccc(OC3CCN(C(=O)Cc4ccc(OC(F)(F)F)cc4)CC3)c(C(N)=O)c2)cn1` [Example 132], 5.1 nM; in that of `Cn1cnc(-c2cnc(O[C@@H]3CCN(C(=O)Cc4ccc(OC5CC5)cn4)C[C@@H]3F)c(C(N)=O)c2)c1` [Example 29, 2-{[(3S,4R)-1-{[5-(cyclopropyloxy)pyridin-2-yl]acetyl}-3-fluoropiperidin-4-yl]oxy}-5-(1-methyl-1H-imidazol-4-yl)pyridine-3-carboxamide], 4.3 nM.

On to `NC(=O)c1cc(-c2cccc(CO)c2)ccc1OC1CCN(C(=O)Cc2ccc(OC(F)(F)F)cc2)CC1` [Example 106, 3′-(hydroxymethyl)-4-[(1-{[4-(trifluoromethoxy)phenyl]acetyl}piperidin-4-yl)oxy]biphenyl-3-carboxamide], for which the 50% inhibitory concentration (IC50) is 5.3 nM. With `CS(=O)(=O)Cn1cc(-c2cnc(OC3CCN(C(=O)Cc4ccc(OC(F)(F)F)cc4)CC3)c(C(N)=O)c2)cn1` [Example 20, 5-{1-[(methylsulfonyl)methyl]-1H-pyrazol-4-yl}-2-[(1-{[4-(trifluoromethoxy)phenyl]acetyl}pjperidin-4-yl)oxy]pyridine-3-carboxamide] the figure was 5.7 nM; with `NC(=O)c1cc(-c2cnn(C3CS(=O)(=O)C3)c2)cnc1O[C@H]1CCN(C(=O)Cc2ccc(OC3CC3)cn2)C[C@H]1F` (racemic) [Example 39, 1:1 Cis-racemic 2-{[1-{[5-(cyclopropyloxy)pyridin-2-yl]acetyl}-3-fluoropiperidin-4-yl]oxy}-5-[1-(1,1-dioxidothietan-3-yl)-1H-pyrazol-4-yl]pyridine-3-carboxamide], 7 nM; with `NCCn1cc(-c2ccc(OC3CCN(C(=O)Cc4ccc(OC(F)(F)F)cc4)CC3)c(C(N)=O)c2)cn1` [Example 138, 5-[1-(2-aminoethyl)-1H-pyrazol-4-yl]-2-[(1-{[4-(trifluoromethoxy)phenyl]acetyl}piperidin-4-yl)oxy]benzamide], 7 nM. `Cc1n[nH]c(C)c1-c1ccc(OC2CCN(C(=O)Cc3ccc(OC(F)(F)F)cc3)CC2)c(C(N)=O)c1` [Example 102, 5-(3,5-dimethyl-1H-pyrazol-4-yl)-2-[(1-{[4-(trifluoromethoxy)phenyl]acetyl}piperidin-4-yl)oxy]benzamide]: the IC50 was found to be 10.1 nM. With `NC(=O)c1cc(-c2cnn(CCO)c2)cnc1OC1CCN(C(=O)Cc2ccc(OC(F)(F)F)cc2)CC1` [Example 89, 5-[1-(2-hydroxyethyl)-1H-pyrazol-4-yl]-2-[(1-{[4-(trifluoromethoxy)phenyl]acetyl}piperidin-4-yl)oxy]pyridine-3-carboxamide] the figure was 5.4 nM.

With `NC(=O)c1cc(-c2cnn(C3CCS(=O)(=O)C3)c2)ccc1OC1CCN(C(=O)Cc2ccc(OC(F)(F)F)cc2)CC1` (racemic) [Example 14, Racemic 5-[1-(1,1-dioxidotetrahydrothiophen-3-yl)-1H-pyrazol-4-yl]-2-[(1-{[4-(trifluoromethoxy)phenyl]acetyl}piperidin-4-yl)oxy]benzamide], the IC50 turned out to be 2.4 nM. In the case of `C[C@H](N)c1ccc(-c2ccc(OC3CCN(C(=O)Cc4ccc(OC(F)(F)F)cc4)CC3)c(C(N)=O)c2)cc1` [Example 66, 4'-[(1S)-1-aminoethyl]-4-[(1-{[4-(trifluoromethoxy)phenyl]acetyl}piperidin-4-yl)oxy]biphenyl-3-carboxamide] it was 2.8 nM. `NC(=O)c1cc(-c2ccc(CO)cc2)cnc1OC1CCN(C(=O)Cc2ccc(OC(F)(F)F)cc2)CC1` [Example 151, 5-[4-(hydroxymethyl)phenyl]-2-[(1-{[4-(trifluoromethoxy)phenyl]acetyl}piperidin-4-yl)oxy]pyridine-3-carboxamide]: the IC50 amounted to 12 nM.

On to `NC(=O)c1cc(-c2cnn(C3CS(=O)(=O)C3)c2)cnc1O[C@H]1CCN(C(=O)Cc2ccc(OC(F)(F)F)cc2)C[C@H]1F` (racemic) [Example 38, 1:1 Cis-racemic 5-[1-(1,1-dioxidothietan-3-yl)-1H-pyrazol-4-yl]-2-{[3-fluoro-1-{[4-(trifluoromethoxy)phenyl]acetyl}piperidin-4-yl]oxy}pyridine-3-carboxamide], for which the 50% inhibitory concentration (IC50) came to 2 nM.
